Patent publication US10123904B2, “Preservative removal from eye drops” (University of Florida Research Foundation, Inc., priority 2014, dated 2018)
Structures can show the parent of a compound that is named as a salt. Where two headings read alike, the source gives them in different places. Marks after values point to notes of the source that are not given here.

Key:
[1] = BAK/drug removal by macroporous pHEMA gel plug packed in syringe, 10 consecutive passes; format: physicochemical; conditions: for Percentage removed/absorbed after passing through plug: 2.5 mL through 5 mm macroporous pHEMA gel, 1 cm syringe; for Drug adsorption percentage: first pass through the 10th pass, macroporous pHEMA gel
Protocol: The four drugs were dissolved in PBS and mixed with BAK individually. The macroporous pHEMA hydrogel prepared as above, was used as the BAK removal filter and packed into the syringe, as described above. The experimental setup is that of FIG. 3. […] The solution that passed through the filter plug was collected and the concentration of drug/BAK was determined by measuring the UV-Vis spectra. The measured UV spectrum was a linear combination of the testing drug and BAK and thus, the individual concentration of the drug and BAK could be determined by applying a least square fit method as described in Kim et al. Int. J.

[2] = Partition coefficient of drugs and BAK in macroporous pHEMA gel; format: physicochemical; conditions: for Partition coefficient in macroporous pHEMA gel: 250 mg gel soaked in 12 mL drug or BAK solution in PBS, 15 days, mean ± SD, n = 3; for Partition coefficient smaller than that of BAK: macroporous pHEMA gel
Protocol: As indicated above, the absorption percentage of hydrophilic drug is small, whereas a significant amount of hydrophobic drug is uptake by the macroporous pHEMA gel. The high affinity of hydrophobic drug to the gel can be determined by measuring the partition coefficient of the drug in the gel. To measure the partition coefficient, a piece of macroporous pHEMA gel of 250 mg was soaked in 12 mL of drug or BAK solution. After 15 days of soaking, the concentration of the drug or BAK solution was measured by using UV-Vis spectrophotometry. The drug or BAK concentration after soaking indicated the amount of drug or BAK in reference to the initial concentration is that absorbed into the gel. The partition coefficient of timolol and dorzolamide in macroporous pHEMA gel is roughly 15 times smaller than that of BAK, which is excellent separation efficiency. In contrast, the partition coefficients of latanoprost and BAK are pretty high and the separation efficiency of the gel for this mixture is poor.

[3] = BAK/drug removal by crushed macroporous pHEMA particles packed in syringe, passes separated by 24 hours; format: physicochemical
Protocol: Macroporous pHEMA hydrogel as prepared above was dried in the oven of 80° C. and crushed into particles and the particles packed into the syringe. Two pieces of filter papers were placed at the bottom of the syringe to prevent the packing particles from leaking out. Particles facilitate packing of a hydrogel into the neck of the eye drop bottle where packing is amenable to high-throughput industrial scale loading of gel filters. […] The process was timed using a stopwatch from the moment of placing the weight to the last drop entered the beaker. The weight of the collected solution in the beaker was measured to calculate the flow rate through the pHEMA particles. […] The UV spectrum of the collected solution was measured and the individual concentration of the drug and BAK were determined by a least square fit method as described in Kim et al., Int. J. […] After each measurement, the bottom outlet of the syringe was sealed with parafilm to prevent dehydration of the packed pHEMA particles in the manner equivalent to sealing the eye drop bottle with the cap after use.

[4] = Timolol/BAK separation by pHEMA particles with SR454HP cross-linker in eye drop bottle prototype; format: physicochemical
Excerpt: (§1) More rigid and larger size particles create a larger void space for fluid to flow and improved hydraulic permeability. […] This would be undesirable because the plug is drug at the time of the instillation of the first drop but then could be partially or fully hydrated for subsequent instillations, depending on whether the plug retains the fluid in the interim time between successive instillations. […] During the UV curing, the mixture was continuously stirred by a 35×6 mm magnetic stirring bar at 70 rpm. In addition, the petri dish was covered to avoid water evaporation and oxygenation. After polymerization, the pHEMA gel were separated from the solution by vacuum filtration method and washed with a large quantity of DI water to remove the unreacted monomers and other impurities. The pHEMA gel was then dried in an oven of 80° C. and crushed into particles in a mortar. Selectivity of the separation of BAK from timolol was measured. […] A constant pressure drop was applied across the packed particles to maintain a constant flow rate through the plug. […] The UV spectrum of the outlet solution was measured and the concentrations of the drug and BAK were determined by the least square fit method described in Kim et al., Int. J. […] The tip of the prototype bottle was sealed with parafilm. […] The step was repeated 10 times over a total of 10 days.

[5] = Binding of BAK and drugs to pHEMA matrix (general statement); format: physicochemical
[6] = 3 consecutive runs; hydrogel treated with 1% MAA
Protocol: The hydrogel was packed into the syringe as BAK removal filter and its separation efficiency of BAK from dexamethasone was tested in the same manner as the copolymer.

[7] = Partition coefficient in pHEMA particles prepared using SR9035 as cross-linker; format: physicochemical; conditions: 100 mg particles soaked in 3.5 mL solution, 9 days
Protocol: The partition coefficients of timolol, CMC and BAK in pHEMA particles prepared using SR9035 as cross-linker was measured. pHEMA particles (100 mg) were soaked in 3.5 mL of timolol, CMC and BAK solution, which concentration was 0.08 mg/mL, 0.5% and 2.4 mg/mL, respectively. After 9 days of soaking, the concentration of the drug or BAK solution was measured by using UV-Vis spectrophotometry. The drug or BAK concentration after soaking indicated the amount of drug or BAK that absorbed into the gel relative to the initial concentration. The partition coefficient of timolol and CMC in pHEMA particles is much smaller than that of BAK, and should have excellent separation efficiency.

[8] = Partition coefficient of BAK in pHEMA particles prepared by heat-initiated polymerization; format: physicochemical
[9] = Timolol/BAK separation by heat-initiated pHEMA particles in eye drop bottle prototype; format: physicochemical
Protocol: FIG. 24 indicates the percentages of BAK and timolol that were absorbed after the mixture in solution was passed through the heat-initiated pHEMA particles, shown in FIG. 18. […] The hydraulic permeability of the packing particles is 0.0459 Darcy which was measured as described, above. […] The size of the particles prepared by UV or heat-initiated polymerization is similar. […] The drug/BAK solution was injected into the prototype bottle with a syringe. […] The UV spectrum of the outlet solution was measured and the individual concentration of the drug and BAK was determined by a least square fit method as described in Kim et al., Int. J.

[10] = Timolol/BAK separation by UV-initiated pHEMA particles (EGDMA) in eye drop bottle prototype; format: physicochemical
Excerpt: The sodium chloride promoted phase separation of the mixture. Small globules containing HEMA monomer and EGDMA was formed by continuously stirring the system at high rpm. […] In addition, the petri dish was covered to avoid water evaporation and oxygenation. After the polymerization, the pHEMA particles were separated from the solution by vacuum filtration method and washed with a large quantity of DI water to remove the unreacted monomers and other impurities. The particles were then dried in an oven of 80° C. […] The synthesized particles were packed in the prototype bottle and tested for their selectivity of separation of BAK from timolol. […] The drug/BAK solution was injected into the prototype bottle with a syringe. A clip was applied to the bottle to impose a constant pressure drop. […] The UV spectrum of the outlet solution was measured and the concentrations of the drug and BAK were determined by the least square fit method described in Kim et al., Int. J. Pharm., 2008, Apr. 2; 353(1-2):205-22. Five samples were successively removed through the plug.

[11] = Latanoprost/BAK separation by crushed macroporous pHEMA particles in eye drop bottle prototype; format: physicochemical; conditions: all 10 runs over 10 days; 1.5 mL, 8 mm plug, particles pre-equilibrated with latanoprost
Protocol: The crushed macroporous pHEMA particles were prepared as described above. The particles were packed in the eye drop bottle prototype (FIG. 19) to test its selectivity of separation of BAK from latanoprost. The concentration of latanoprost and BAK prepared for the testing were both 0.03 mg/mL with PBS as the solvent. The drug/BAK solution was injected into the prototype bottle with a syringe. A clip was clipping on the bottle to create a constant pressure drop across the packing pHEMA particles of 8 mm in length. A volume of 1.5 mL of the drug/BAK solution was passed through the filter by squeezing the bottle. The UV spectrum of the outlet solution was measured and the individual concentration of the drug and BAK was determined by a least square fit method as described in Kim et al., Int. J. Pharm., 2008, Apr. 2; 353(1-2):205-22. The tip of the prototype bottle was sealed with parafilm. After 24 hours, another 1.5 mL drug/BAK solution was removed through the same filter and again to measure the concentrations of the drug and BAK. The step was repeated 10 times over a total of 10 days.

[12] = Timolol/BAK separation by pHEMA particles with SR9035 cross-linker in eye drop bottle prototype; format: physicochemical
Excerpt: as §1

Compound: CC(C)OC(=O)CCC/C=C\C[C@@H]1[C@@H](CC[C@@H](O)CCc2ccccc2)[C@H](O)C[C@@H]1O [Latanoprost, latanoprost]
- Percentage removed/absorbed after passing through plug ([1]; 10th pass): 30%
- Percentage removed/absorbed after passing through plug ([1]; first run): 90%
- Partition coefficient in macroporous pHEMA gel [2]: 90.18 ± 1.36
- Portion of drug absorbed ([3]; particles pre-equilibrated with the corresponding drug solution): only a very small portion

Compound: C[C@@H]1C[C@H]2[C@@H]3CCC4=CC(=O)C=C[C@]4(C)[C@@]3(F)[C@@H](O)C[C@]2(C)[C@@]1(O)C(=O)CO [Dexamethasone, dexamethasone]
- Partition coefficient in macroporous pHEMA gel [2]: 33.53 ± 1.31

Compound: Benzalkonium chloride [BAK]
- Percentage removed ([4]; after the 5th run): about 90%
- Percentage removed ([4]; first 3-5th runs, 1.5 mL daily, 1.8 cm plug): ~100%
- Adsorption time on pHEMA ([5]; compared with transit time through plug): < 3 s
- Partition coefficient into the pHEMA matrix ([5]; depending on BAK concentration and structure of the pHEMA matrix): 100-500
- Percentage of BAK removed [6]: ~100%
- Partition coefficient in pHEMA particles prepared by using SR9035 as cross-linker [7]: ~300
- Percentage removed/absorbed after passing through plug ([1]; 10th pass): 70-80%
- Percentage removed/absorbed after passing through plug ([1]; first run): 100%
- Partition coefficient of BAK in pHEMA particles prepared by heat-initiated polymerization [8]: 200-250
- Percentage removed ([9]; each of 10 passes carried out successively, 1.5 mL, 8 mm plug): ~100%
- Percentage removed ([10]; 5th run, 1.5 mL, 8 mm plug): 30%
- Percentage removed ([10]; first pass, 1.5 mL, 8 mm plug): Roughly 50%
- Percentage of BAK removed [11]: ~100%
- Percentage removed ([12]; 10th run): about 95%
- Percentage removed ([12]; first 6th runs, 1.5 mL daily, 1.8 cm plug): ~100%
- Percentage of BAK removed ([3]; all 10 passes, each separated by 24 hours, regardless of the drug in the solution): ~100%

Compound: CCN[C@H]1C[C@H](C)S(=O)(=O)c2sc(S(N)(=O)=O)cc21 [Dorzolamide, dorzolamide hydrochloride]
- Drug adsorption percentage [1]: about 5%
- Partition coefficient in macroporous pHEMA gel [2]: 7.59 ± 0.56
- Partition coefficient smaller than that of BAK [2]: roughly 15 times

Compound: CC(C)(C)NC[C@H](O)COc1nsnc1N1CCOCC1 [Timolol, timolol maleate]
- Percentage removed ([4]; 1st run): About 18%
- Amount removed ([4]; 10th run): negligible
- Partition coefficient in pHEMA particles prepared by using SR9035 as cross-linker [7]: 5.59 ± 0.13^a
- Drug adsorption percentage [1]: about 5%
- Percentage removed ([9]; 1st run): About 17%
- Percentage removed ([9]; 10th run): about 3%
- Percentage removed ([10]; each of the 5 runs): about 1.5%
- Partition coefficient in macroporous pHEMA gel [2]: 6.49 ± 0.37
- Partition coefficient smaller than that of BAK [2]: roughly 15 times
- Percentage removed ([12]; 1st run): About 25%
- Amount removed ([12]; after the 5th run): negligible
